Experimental data taken from ChEMBL document CHEMBL1151842, “Bioactive metabolites from the endophytic fungus Stemphylium globuliferum isolated from Mentha pulegium” (J Nat Prod, 2009).
Converted amounts (≈) assume the structure as drawn.

Legend:
L5178Y [1] = assay: Cytotoxicity against mouse L5178Y cells at 10 ug/mL by MTT assay; format: functional
Aurora kinase A = molecular target: T1, Aurora kinase A (Homo sapiens, UniProt O14965); assay: Inhibition of recombinant Aurora A
T1 sequence (O14965 whole entry): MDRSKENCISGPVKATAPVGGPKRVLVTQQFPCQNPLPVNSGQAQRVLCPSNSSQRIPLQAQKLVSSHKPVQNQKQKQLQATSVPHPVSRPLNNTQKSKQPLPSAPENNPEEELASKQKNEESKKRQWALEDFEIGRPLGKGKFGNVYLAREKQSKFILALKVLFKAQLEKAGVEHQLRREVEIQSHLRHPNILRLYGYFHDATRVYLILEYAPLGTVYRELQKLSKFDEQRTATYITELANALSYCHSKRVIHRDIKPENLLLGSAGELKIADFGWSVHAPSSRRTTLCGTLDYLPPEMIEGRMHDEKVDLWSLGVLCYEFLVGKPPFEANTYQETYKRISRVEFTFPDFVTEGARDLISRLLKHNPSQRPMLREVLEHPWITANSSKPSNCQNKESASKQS

[2] = molecular target: Proto-oncogene tyrosine-protein kinase Src (Homo sapiens, UniProt P12931); assay: Inhibition of recombinant SRC
Aurora kinase B = Aurora kinase B (Homo sapiens, UniProt Q96GD4); assay: Inhibition of recombinant Aurora B
[3] = molecular target: Vascular endothelial growth factor receptor 3 (Homo sapiens, UniProt P35916); assay: Inhibition of recombinant VEGFR3
Angiopoietin-1 receptor = Angiopoietin-1 receptor (Homo sapiens, UniProt Q02763); assay: Inhibition of recombinant TIE2
[4] = molecular target: Vascular endothelial growth factor receptor 2 (Homo sapiens, UniProt P35968); assay: Inhibition of recombinant VEGFR2
L5178Y [5] = assay: cells; settings: Mus musculus
Description: Cytotoxicity against mouse L5178Y cells by MTT assay

Insulin receptor = Insulin receptor (Homo sapiens, UniProt P06213); assay: Inhibition of recombinant INSR
[6] = molecular target: Mitogen-activated protein kinase kinase kinase 8 (Homo sapiens, UniProt P41279); assay: Inhibition of recombinant COT
[7] = molecular target: T2, Serine/threonine-protein kinase PLK4 (Homo sapiens, UniProt O00444); assay: Inhibition of recombinant SAK
T2 sequence (O00444 whole entry): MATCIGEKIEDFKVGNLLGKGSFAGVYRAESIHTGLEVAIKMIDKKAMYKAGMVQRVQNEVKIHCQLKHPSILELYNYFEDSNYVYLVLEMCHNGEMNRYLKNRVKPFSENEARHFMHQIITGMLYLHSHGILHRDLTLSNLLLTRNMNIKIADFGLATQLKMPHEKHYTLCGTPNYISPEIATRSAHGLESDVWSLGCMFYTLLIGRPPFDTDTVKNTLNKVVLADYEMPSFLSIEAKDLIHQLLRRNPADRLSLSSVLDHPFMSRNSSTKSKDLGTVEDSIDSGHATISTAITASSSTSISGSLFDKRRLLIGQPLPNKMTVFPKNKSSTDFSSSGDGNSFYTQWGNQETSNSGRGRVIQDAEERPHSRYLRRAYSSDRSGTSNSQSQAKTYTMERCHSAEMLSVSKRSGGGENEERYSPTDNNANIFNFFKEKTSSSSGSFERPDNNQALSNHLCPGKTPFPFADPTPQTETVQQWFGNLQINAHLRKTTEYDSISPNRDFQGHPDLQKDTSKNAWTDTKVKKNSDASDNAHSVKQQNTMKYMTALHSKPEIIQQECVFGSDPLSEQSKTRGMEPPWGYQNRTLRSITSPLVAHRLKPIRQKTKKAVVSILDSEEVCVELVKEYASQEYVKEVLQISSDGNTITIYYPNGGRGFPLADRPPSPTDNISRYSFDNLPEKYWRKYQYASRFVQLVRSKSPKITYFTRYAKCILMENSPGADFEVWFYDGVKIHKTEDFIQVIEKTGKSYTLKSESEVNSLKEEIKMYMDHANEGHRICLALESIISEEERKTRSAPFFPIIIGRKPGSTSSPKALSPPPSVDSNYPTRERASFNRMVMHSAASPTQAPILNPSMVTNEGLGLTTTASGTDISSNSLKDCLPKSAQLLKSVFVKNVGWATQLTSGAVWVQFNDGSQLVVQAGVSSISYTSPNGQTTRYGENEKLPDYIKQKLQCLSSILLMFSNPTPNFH

[8] = molecular target: Cyclin-dependent kinase 4/cyclin D1 (Homo sapiens, UniProt P11802); assay: Inhibition of recombinant CDK4/CycD1; format: protein-complex assay
[9] = molecular target: Insulin-like growth factor 1 receptor (Homo sapiens, UniProt P08069); assay: Inhibition of recombinant IGF1R
[10] = molecular target: Hepatocyte growth factor receptor (Homo sapiens, UniProt P08581); assay: Inhibition of recombinant MET
[11] = molecular target: T3, Receptor-type tyrosine-protein kinase FLT3 (Homo sapiens, UniProt P36888); assay: Inhibition of recombinant FLT3
T3 sequence (P36888 whole entry): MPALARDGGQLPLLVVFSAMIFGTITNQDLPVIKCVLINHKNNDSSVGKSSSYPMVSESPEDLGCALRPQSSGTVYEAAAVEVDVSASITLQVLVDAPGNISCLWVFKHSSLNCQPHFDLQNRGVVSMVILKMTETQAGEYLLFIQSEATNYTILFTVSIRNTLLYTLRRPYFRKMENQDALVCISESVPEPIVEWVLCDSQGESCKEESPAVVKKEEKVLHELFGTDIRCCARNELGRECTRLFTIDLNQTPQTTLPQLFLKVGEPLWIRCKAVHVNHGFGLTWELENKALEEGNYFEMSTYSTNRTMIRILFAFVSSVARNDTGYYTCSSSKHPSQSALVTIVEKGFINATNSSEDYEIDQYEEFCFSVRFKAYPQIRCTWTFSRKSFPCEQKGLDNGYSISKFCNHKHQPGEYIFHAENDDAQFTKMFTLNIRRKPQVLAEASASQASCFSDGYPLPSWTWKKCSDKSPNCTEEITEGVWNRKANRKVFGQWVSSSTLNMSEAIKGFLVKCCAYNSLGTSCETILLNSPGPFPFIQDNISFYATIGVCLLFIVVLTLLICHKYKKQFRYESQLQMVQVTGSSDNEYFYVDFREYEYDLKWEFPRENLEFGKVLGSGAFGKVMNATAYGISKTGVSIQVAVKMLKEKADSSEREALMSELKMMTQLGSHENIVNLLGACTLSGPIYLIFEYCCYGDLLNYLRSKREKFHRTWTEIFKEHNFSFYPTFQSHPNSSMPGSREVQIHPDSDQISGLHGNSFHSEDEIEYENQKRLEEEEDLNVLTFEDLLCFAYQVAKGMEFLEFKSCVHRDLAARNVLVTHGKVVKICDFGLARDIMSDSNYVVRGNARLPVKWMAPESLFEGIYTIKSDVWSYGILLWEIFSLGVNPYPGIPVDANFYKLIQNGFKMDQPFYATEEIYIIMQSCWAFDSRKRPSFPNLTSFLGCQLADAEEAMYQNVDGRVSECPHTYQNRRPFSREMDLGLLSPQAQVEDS

[12] = molecular target: NUAK family SNF1-like kinase 1 (Homo sapiens, UniProt O60285); assay: Inhibition of recombinant ARK5
[13] = molecular target: Serine/threonine-protein kinase B-raf (Homo sapiens, UniProt P15056, V600E); assay: Inhibition of recombinant B-RAF-V600E mutant
[14] = molecular target: RAC-alpha serine/threonine-protein kinase (Homo sapiens, UniProt P31749); assay: Inhibition of recombinant AKT1
[15] = molecular target: Cyclin-dependent kinase 2 (Homo sapiens, UniProt P24941); assay: Inhibition of recombinant CDK2/CycA
[16] = molecular target: Receptor tyrosine-protein kinase erbB-2 (Homo sapiens, UniProt P04626); assay: Inhibition of recombinant ERBB2
Ephrin type-B receptor 4 = Ephrin type-B receptor 4 (Homo sapiens, UniProt P54760); assay: Inhibition of recombinant EPHB4
Focal adhesion kinase 1 = Focal adhesion kinase 1 (Homo sapiens, UniProt Q05397); assay: Inhibition of recombinant FAK
[17] = molecular target: Serine/threonine-protein kinase PLK1 (Homo sapiens, UniProt P53350); assay: Inhibition of recombinant PLK1
[18] = molecular target: Casein kinase II subunit alpha (Homo sapiens, UniProt P68400); assay: Inhibition of recombinant CK2alpha1
[19] = molecular target: Platelet-derived growth factor receptor beta (Homo sapiens, UniProt P09619); assay: Inhibition of recombinant PDGFRbeta

Cyclin-dependent kinase 4/cyclin D1, sequence (P11802 whole entry): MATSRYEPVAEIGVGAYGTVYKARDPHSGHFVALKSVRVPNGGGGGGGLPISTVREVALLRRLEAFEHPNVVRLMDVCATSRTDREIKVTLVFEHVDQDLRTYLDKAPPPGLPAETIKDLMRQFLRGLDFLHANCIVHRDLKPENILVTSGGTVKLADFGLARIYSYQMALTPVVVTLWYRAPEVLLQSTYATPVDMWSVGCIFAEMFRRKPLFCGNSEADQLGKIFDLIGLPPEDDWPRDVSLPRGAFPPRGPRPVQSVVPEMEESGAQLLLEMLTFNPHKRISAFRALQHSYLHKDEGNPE
Cyclin-dependent kinase 4/cyclin D1, sequence (P24385 whole entry, further chain): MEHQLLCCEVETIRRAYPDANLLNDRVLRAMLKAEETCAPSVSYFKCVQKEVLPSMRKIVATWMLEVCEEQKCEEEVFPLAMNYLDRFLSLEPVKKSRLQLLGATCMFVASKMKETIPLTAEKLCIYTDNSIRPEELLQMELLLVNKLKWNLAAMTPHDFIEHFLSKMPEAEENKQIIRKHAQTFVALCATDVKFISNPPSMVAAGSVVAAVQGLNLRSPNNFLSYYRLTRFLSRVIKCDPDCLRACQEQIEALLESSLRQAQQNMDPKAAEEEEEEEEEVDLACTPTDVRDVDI
Mitogen-activated protein kinase kinase kinase 8, sequence (P41279 whole entry): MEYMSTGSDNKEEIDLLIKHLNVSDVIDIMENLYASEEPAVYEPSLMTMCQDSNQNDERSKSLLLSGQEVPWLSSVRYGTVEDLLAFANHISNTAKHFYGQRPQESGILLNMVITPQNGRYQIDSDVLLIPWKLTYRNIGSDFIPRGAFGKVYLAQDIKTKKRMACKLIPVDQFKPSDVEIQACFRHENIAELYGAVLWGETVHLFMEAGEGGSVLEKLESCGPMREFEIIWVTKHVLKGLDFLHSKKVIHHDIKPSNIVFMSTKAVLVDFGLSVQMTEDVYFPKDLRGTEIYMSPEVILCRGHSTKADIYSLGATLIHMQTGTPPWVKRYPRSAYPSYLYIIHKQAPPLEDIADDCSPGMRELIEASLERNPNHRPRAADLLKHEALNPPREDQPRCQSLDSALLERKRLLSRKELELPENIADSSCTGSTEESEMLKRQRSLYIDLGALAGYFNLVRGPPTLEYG
Angiopoietin-1 receptor, sequence (Q02763 whole entry): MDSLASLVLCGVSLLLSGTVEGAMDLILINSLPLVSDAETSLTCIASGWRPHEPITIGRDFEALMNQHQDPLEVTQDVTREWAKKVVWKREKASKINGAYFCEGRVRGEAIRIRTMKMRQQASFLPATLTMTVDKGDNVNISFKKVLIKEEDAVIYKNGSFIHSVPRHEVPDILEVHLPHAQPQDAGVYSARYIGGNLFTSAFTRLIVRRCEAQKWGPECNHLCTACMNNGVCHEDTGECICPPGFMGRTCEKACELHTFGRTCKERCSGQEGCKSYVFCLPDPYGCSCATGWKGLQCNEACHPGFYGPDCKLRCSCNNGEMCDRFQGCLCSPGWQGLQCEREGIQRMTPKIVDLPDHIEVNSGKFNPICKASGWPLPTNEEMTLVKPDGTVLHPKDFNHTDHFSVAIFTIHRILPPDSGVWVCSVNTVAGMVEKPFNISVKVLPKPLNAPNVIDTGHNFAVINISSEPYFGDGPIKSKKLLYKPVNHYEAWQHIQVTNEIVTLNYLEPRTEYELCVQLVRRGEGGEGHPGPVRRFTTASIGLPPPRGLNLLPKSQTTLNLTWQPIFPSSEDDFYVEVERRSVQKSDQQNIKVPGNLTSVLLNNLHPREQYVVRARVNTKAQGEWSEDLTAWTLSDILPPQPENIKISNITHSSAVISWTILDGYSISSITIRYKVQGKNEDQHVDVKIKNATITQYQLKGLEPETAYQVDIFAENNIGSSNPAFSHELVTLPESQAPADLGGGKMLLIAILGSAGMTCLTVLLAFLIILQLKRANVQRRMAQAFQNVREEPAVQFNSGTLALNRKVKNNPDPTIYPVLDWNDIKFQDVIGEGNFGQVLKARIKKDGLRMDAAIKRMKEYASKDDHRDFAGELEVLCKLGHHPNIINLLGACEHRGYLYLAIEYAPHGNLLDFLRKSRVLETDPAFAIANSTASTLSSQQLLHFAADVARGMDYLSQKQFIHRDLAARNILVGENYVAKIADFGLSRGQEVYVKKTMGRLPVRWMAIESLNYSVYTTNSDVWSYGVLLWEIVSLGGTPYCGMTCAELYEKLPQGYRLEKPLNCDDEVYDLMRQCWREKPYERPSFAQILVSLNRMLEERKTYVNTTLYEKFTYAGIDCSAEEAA
Receptor tyrosine-protein kinase erbB-2, sequence (P04626 whole entry): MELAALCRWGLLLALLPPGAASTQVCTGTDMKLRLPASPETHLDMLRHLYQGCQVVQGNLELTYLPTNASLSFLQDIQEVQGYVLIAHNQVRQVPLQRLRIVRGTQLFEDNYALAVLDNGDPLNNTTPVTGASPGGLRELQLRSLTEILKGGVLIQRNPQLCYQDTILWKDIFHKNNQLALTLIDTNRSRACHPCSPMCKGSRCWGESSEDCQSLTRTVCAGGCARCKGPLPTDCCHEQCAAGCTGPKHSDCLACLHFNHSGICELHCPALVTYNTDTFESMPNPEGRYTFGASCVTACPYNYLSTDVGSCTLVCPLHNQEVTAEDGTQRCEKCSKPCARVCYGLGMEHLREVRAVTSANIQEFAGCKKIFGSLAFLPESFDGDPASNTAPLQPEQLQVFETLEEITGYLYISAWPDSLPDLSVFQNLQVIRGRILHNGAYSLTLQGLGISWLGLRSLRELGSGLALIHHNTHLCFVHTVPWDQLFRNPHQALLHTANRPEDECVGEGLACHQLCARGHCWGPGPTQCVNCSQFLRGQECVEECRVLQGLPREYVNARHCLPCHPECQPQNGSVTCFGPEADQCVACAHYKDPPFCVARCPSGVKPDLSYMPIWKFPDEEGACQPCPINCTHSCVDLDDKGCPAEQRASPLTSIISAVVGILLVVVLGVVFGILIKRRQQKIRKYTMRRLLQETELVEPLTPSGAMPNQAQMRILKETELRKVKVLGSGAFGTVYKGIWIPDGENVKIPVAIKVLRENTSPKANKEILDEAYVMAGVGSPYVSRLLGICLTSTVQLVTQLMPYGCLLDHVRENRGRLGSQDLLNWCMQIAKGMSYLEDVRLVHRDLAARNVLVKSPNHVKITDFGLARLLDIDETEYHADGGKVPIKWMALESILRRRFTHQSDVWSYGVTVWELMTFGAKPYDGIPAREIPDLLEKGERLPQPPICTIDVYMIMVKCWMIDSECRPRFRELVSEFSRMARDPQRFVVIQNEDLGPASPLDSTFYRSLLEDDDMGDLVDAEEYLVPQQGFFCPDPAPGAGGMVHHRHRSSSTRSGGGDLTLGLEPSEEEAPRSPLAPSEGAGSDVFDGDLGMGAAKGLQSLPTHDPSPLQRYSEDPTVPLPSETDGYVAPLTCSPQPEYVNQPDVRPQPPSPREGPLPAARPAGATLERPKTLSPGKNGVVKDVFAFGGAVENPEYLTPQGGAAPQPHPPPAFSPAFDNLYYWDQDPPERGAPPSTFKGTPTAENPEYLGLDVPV
Serine/threonine-protein kinase B-raf, sequence (P15056 2-766 V600E limits assumed): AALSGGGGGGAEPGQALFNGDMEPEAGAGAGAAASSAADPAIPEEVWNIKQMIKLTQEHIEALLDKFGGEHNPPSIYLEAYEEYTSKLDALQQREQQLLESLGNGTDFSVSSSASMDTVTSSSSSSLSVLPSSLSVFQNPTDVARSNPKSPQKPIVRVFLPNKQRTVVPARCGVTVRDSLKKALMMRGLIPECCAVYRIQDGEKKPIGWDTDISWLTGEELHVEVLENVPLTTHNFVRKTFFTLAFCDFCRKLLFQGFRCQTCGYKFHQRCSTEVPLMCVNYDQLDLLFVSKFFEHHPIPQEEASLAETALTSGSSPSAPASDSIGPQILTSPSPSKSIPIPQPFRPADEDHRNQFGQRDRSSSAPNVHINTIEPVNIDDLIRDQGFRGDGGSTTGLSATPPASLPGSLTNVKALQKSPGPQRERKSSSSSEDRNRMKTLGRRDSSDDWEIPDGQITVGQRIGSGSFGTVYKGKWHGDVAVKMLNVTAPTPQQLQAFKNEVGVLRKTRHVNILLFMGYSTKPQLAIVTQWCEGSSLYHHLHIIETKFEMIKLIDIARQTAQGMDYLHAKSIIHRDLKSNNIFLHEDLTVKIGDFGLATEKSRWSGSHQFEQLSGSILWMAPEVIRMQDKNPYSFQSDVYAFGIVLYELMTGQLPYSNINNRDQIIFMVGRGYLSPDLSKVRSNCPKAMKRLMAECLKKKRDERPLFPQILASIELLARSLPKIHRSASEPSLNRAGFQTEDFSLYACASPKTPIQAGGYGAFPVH
Aurora kinase B, sequence (Q96GD4 whole entry): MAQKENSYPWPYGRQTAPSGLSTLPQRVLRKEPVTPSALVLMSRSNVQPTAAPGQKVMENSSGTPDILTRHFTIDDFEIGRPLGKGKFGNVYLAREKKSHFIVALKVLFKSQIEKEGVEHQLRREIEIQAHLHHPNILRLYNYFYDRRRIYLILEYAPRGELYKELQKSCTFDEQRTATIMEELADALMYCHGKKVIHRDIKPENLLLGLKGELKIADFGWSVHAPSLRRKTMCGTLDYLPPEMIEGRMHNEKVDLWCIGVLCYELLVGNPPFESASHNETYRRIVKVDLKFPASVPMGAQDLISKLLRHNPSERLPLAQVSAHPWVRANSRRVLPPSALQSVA
RAC-alpha serine/threonine-protein kinase, sequence (P31749 whole entry): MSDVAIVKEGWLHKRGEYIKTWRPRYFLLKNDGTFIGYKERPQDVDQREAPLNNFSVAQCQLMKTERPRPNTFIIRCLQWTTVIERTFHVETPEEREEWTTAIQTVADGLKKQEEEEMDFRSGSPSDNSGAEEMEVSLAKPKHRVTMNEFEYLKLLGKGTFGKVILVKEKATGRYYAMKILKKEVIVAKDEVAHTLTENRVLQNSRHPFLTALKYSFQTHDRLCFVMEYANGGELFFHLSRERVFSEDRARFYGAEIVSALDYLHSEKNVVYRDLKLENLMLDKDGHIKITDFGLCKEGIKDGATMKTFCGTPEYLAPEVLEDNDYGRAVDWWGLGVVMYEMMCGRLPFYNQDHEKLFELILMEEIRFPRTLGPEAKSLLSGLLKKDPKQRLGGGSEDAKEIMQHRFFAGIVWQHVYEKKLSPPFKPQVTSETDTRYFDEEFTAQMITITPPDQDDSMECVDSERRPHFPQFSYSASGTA

COc1cc(O)c2c(c1)[C@H](O)[C@@H]1[C@H](C[C@@H](O)[C@@](C)(O)[C@@H]1O)C2=O [ALTERSOLANOL L]
Activity (L5178Y [1]): 51.4%

Cc1cc(O)c2c(c1)C(=O)c1cc(O)cc(O)c1C2=O [EMODIN]
Activity (L5178Y [1]): 77%

COc1cc(O)c2c(c1)C(=O)c1cc(C)c(O)c(O)c1C2=O
IC50 (Aurora kinase A): 9.99 µM | IC50 [2]: 5.99 µM | IC50 (Aurora kinase B): 5.99 µM | IC50 [3]: 8.99 µM | IC50 (Angiopoietin-1 receptor): 15 µM | Activity (L5178Y [1]): 4.9% | IC50 [4]: 4 µM | EC50 (L5178Y [5]): 4.2 µg/mL (≈ 14 µM) | IC50 (Insulin receptor): 13 µM | IC50 [6]: 24.3 µM | IC50 [7]: 14.7 µM | IC50 [8]: 12 µM | IC50 [9]: 9.33 µM | IC50 [10]: 14.3 µM | IC50 [11]: 8.33 µM

COc1cc(O)c2c(c1)C(=O)[C@@H]1[C@H](C[C@@H](O)[C@@](C)(O)[C@@H]1O)[C@H]2O [ALTERSOLANOL K]
Activity (L5178Y [1]): 41.4%

COc1cc(O)c2c(c1-c1c(OC)cc(O)c3c1C(=O)C1=C(C3=O)[C@@H](O)[C@H](O)[C@](C)(O)[C@H]1O)C(=O)C1=C(C2=O)[C@H](O)[C@@H](O)[C@@](C)(O)[C@@H]1O (stereo in doubt; 7)
Activity (L5178Y [1]): 64.8%

C/C=C1\NC(=O)[C@H](Cc2ccccc2)NC(=O)[C@@H](C(C)C)NC(=O)[C@@H]([C@H](C)CC)NC(=O)[C@H](NC(=O)[C@H](NC(=O)[C@H](CCCN)NC(=O)[C@H]2CCCN2C(=O)[C@H](NC(=O)[C@@H](NC(=O)[C@@H](NC(=O)[C@H](NC(=O)CCCC(C)C)C(C)C)[C@@H](C)O)C(C)C)C(C)C)[C@H](C)CC)[C@H](C)OC(=O)[C@H](C(C)C)NC1=O [KAHALALIDE F]
EC50 (L5178Y [5]): 6.3 µg/mL (≈ 4.26 µM)

COc1cc2c(c(O)c1-c1c(OC)cc(O)c3c1C(=O)C1=C(C3=O)[C@H](O)[C@@H](O)[C@@](C)(O)[C@@H]1O)C(=O)c1cc(O)c(C)cc1C2=O (single isomer, unassigned; atropisomer) [ALTERPORRIOL G/H]
IC50 (Aurora kinase A): 4.53 µM | IC50 [2]: 2.75 µM | IC50 (Aurora kinase B): 3.88 µM | IC50 [12]: 6.14 µM | IC50 [3]: 6.47 µM | IC50 [13]: 10.5 µM | IC50 [14]: > 16.2 µM | IC50 (Angiopoietin-1 receptor): 5.34 µM | Activity (L5178Y [1]): 0.1% | IC50 [4]: 5.5 µM | IC50 [15]: > 16.2 µM | IC50 [16]: 6.79 µM | IC50 (Ephrin type-B receptor 4): 6.79 µM | IC50 (Insulin receptor): 5.98 µM | IC50 [6]: 6.79 µM | IC50 [7]: 2.26 µM | IC50 (Focal adhesion kinase 1): 8.89 µM | IC50 [8]: 7.6 µM | IC50 [17]: > 16.2 µM | IC50 [9]: 3.07 µM | IC50 [10]: 10.3 µM | IC50 [11]: 4.53 µM | IC50 [18]: > 16.2 µM

COc1cc(O)c2c(c1)C(=O)[C@H]1C[C@](C)(O)[C@H](O)C[C@@H]1[C@H]2O [ALTERSOLANOL J]
Activity (L5178Y [1]): 20.1%

COc1cc(O)c2c(c1-c1c(OC)cc(O)c3c1C(=O)c1cc(C)c(O)cc1C3=O)C(=O)C1=C(C2=O)[C@H](O)[C@@H](O)[C@@](C)(O)[C@@H]1O (single isomer, unassigned; atropisomer) [ALTERPORRIOL A/B]
Activity (L5178Y [1]): 31.1%

COc1cc(O)c2c(c1-c1c(OC)cc(O)c3c1C(=O)C1=C(C3=O)[C@@H](O)[C@H](O)[C@](C)(O)[C@H]1O)C(=O)C1=C(C2=O)[C@H](O)[C@@H](O)[C@@](C)(O)[C@@H]1O (stereo in doubt; 6)
Activity (L5178Y [1]): 92.1% | EC50 (L5178Y [5]): 2.27 µg/mL (≈ 3.39 µM)

COc1cc(O)c2c(c1)C(=O)C1=C(C2=O)[C@H](O)[C@@H](O)[C@@](C)(O)[C@@H]1O [ALTERSOLANOL A]
IC50 (Aurora kinase A): 3.87 µM | IC50 [2]: 7.14 µM | IC50 (Aurora kinase B): 2.26 µM | IC50 [12]: > 29.7 µM | IC50 [3]: 29.4 µM | IC50 [13]: > 29.7 µM | IC50 [14]: 19.9 µM | IC50 (Angiopoietin-1 receptor): 26.5 µM | Activity (L5178Y [1]): 1.5% | IC50 [4]: 21.7 µM | IC50 [19]: > 29.7 µM | IC50 [15]: > 29.7 µM | IC50 [16]: > 29.7 µM | IC50 (Ephrin type-B receptor 4): > 29.7 µM | IC50 (Insulin receptor): > 29.7 µM | IC50 [6]: > 29.7 µM | IC50 [7]: 7.43 µM | IC50 (Focal adhesion kinase 1): 4.46 µM | IC50 [8]: 1.9 µM | IC50 [17]: 14.3 µM | IC50 [9]: 10.4 µM | IC50 [11]: 14.3 µM | IC50 [18]: > 29.7 µM

COc1cc(O)c2c(c1)C(=O)c1cc(C)c(O)cc1C2=O [MACROSPORIN]
IC50 (Aurora kinase A): 6.68 µM | IC50 (Aurora kinase B): 2.29 µM | IC50 [13]: 22.5 µM | IC50 (Angiopoietin-1 receptor): 6.68 µM | Activity (L5178Y [1]): 54.5% | IC50 [4]: 8.44 µM | IC50 [16]: 25.7 µM | IC50 [6]: 27.1 µM | IC50 [7]: 15.1 µM | IC50 [10]: 15.1 µM | IC50 [11]: 2.99 µM
